Work on CCC1Nc2cc(F)ccc2-n2cccc21 (centres undefined) yielded a melting point of 49 to 51 °C. Work on CCc1cccc(C)c1CNc1cc(C(N)=O)cc2c1nc(C)n2C yielded a melting point of 240 to 241 °C. With [O-][N+]1=C(c2ccccc2)c2cc(Cl)ccc2CCC1 the melting point was 120 to 125 °C. Work on O=C(NC(=O)N1CCC(Cc2ccc(F)cc2F)CC1)c1ccc(O)cc1 yielded a melting point of 168 °C. With C=C(C)CCOc1c(-c2ccc(S(C)(=O)=O)cc2)cnn(-c2cccc(Cl)c2)c1=O the melting point was 110 to 112 °C. In the case of Cc1cc(OCCN2CCCCC2)ccc1NC(=O)NC1C2CC3CC(C2)CC1C3 (centres undefined), the melting point is reported as 196 °C. COC(=O)c1cc(C(C)(C)C)cc(C(C)(C)C)c1 showed a melting point of 52 to 52.5 °C. Work on Cc1cccc(C(=O)Nc2ccc3c(c2)CCC(NCc2ccccn2)CC3)c1-c1ccc(C(F)(F)F)cc1 (centres undefined) yielded a melting point of 104 to 106 °C. O=c1[nH]c(=O)n(CCCCBr)c2cc([N+](=O)[O-])ccc12 gave a melting point of 202 to 203 °C. With COc1cc(/C=C/CO)ccc1OCc1nc(-c2ccco2)oc1C the melting point was 128 to 129 °C. In the case of CC(C)n1nc(C#Cc2ccccc2)ccc1=O, the melting point is reported as 75.5 to 77 °C. CNC(=S)N1CCSC1c1ccccc1OCCN1CC=C(c2cccc(F)c2)CC1 (centres undefined) gave a melting point of 147 to 148 °C. With COc1cc(NC(C)CCCN)c2nccc(C)c2c1Oc1cccc(C(F)(F)F)c1 (centres undefined) the melting point was 128 to 131 °C. Compound Cc1cccc(-c2n[nH]cc2-c2ccc(F)c(-c3ccc(C(C)O)cn3)c2)n1 (centres undefined) has a melting point of 149 to 151 °C. Compound CCn1cc(C(=O)O)c(=O)c2cnc(N3CCN(Cc4ccc([N+](=O)[O-])cc4)CC3)nc21 has a melting point of 259 to 261 °C. CC(=O)/C=C/c1cc(F)c2ncc(C(=O)NCc3ccc(Cl)cc3)c(O)c2c1 gave a melting point of 286 to 289 °C. Compound O=C(N[C@H]1CCN(C(=O)c2cc(Cl)cc(Cl)c2)[C@H](Cc2ccccc2)C1)c1cc2ccccc2[nH]1 (relative stereo) has a melting point of 254 °C. O=C(O)c1cn(-c2ccc(F)cc2F)c2c(F)c(N3Cc4cccc(Cl)c4C3)c(F)cc2c1=O showed a melting point of 256 to 260 °C. In the case of O=C(NC(CO)(CO)CO)c1ccc(C(=O)NC(CO)(CO)CO)cc1, the melting point is reported as 188 to 190 °C. O=C1NC(=O)C(=Cc2ccccc2)S1 gave a melting point of 246 to 248 °C. In the case of Cc1ncn(-c2cc(C(Cl)(Cl)Cl)c3cc(C(Cl)(Cl)Cl)ccc3n2)n1, the melting point is reported as 169 to 170 °C. O=C(Cn1c(-c2ccc(Cl)cc2)nc2cccnc21)NC1CCCCC1 showed a melting point of 240 to 241 °C. In the case of CN1CC(CCN2CCN(c3ccccc3F)CC2)OC1=O (centres undefined), the melting point is reported as 80 to 82 °C. Work on O=C(C=C1CCN(Cc2ccc(F)cc2)CC1)NCc1ccc(F)c(F)c1 yielded a melting point of 83 to 85 °C. Work on O=C1Nc2ccccc2C(c2ccccc2)N1C1CCN(CC2CC2)CC1 (centres undefined) yielded a melting point of 276 to 281 °C. Compound c1ccc(CN2CCOC(c3ccccc3)(c3ccccc3)CC2)cc1 has a melting point of 72 to 75 °C. In the case of N#Cc1cc(Cc2ccccc2Cl)ccc1N, the melting point is reported as 79 to 80 °C. COC(=O)CN(CC(=O)OC)[C@H]1CC[C@H](Nc2ncc3ncnc(Nc4ccc(F)c(Cl)c4)c3n2)CC1 showed a melting point of 181 to 184 °C. Work on Cc1nc(NC(=O)c2cccc(Cl)c2)sc1C(=O)NCc1ccccc1 yielded a melting point of 178 to 179 °C. In the case of Nc1ccc(S(=O)(=O)c2cc(-c3ccc4ccccc4c3)nc(N3CCCC3)c2)cc1, the melting point is reported as 244 to 246 °C. COC(=O)c1ccc(CC(=O)c2ccc3c(c2)C(C)(C)CCC3(C)C)cc1 showed a melting point of 103 to 104 °C. Work on COc1cc(O)c(C(=O)C=Cc2ccc(C)cc2)c(OC)c1 yielded a melting point of 130 °C. With N#Cc1ccc2[nH]c3c(c2c1)CC(NC(=O)OCc1ccccc1)CC3 (centres undefined) the melting point was 141 to 143 °C. c1ccc(-c2ccc(Nc3ncc(-c4ccccc4)s3)nc2)cc1 showed a melting point of 231 to 233 °C. Work on COC(=O)COc1ncccc1[N+](=O)[O-] yielded a melting point of 61.5 °C. CCCNc1ccc(NC(=O)c2ccc(NC(=O)c3ccc(NCCC)nc3)nc2)nc1 showed a melting point of 249 to 250 °C. Compound CNC(=O)c1cc2c(Oc3ccc(-n4cncn4)cc3)cncc2s1 has a melting point of 214 to 215 °C. CCCCCNCCC1CCCC1CCCCCCC(=O)O (centres undefined) gave a melting point of 107 to 108 °C. Work on Cc1ccc(OCC(O)CCCl)cc1 (centres undefined) yielded a melting point of 62 to 64 °C. Work on O=C(NCC1CCNCC1)c1ccccc1 yielded a melting point of 119 °C. For COc1ccc(N2CCN(c3ccc(-n4cnn(C(C)C(F)(F)F)c4=O)cc3)CC2)cc1 (centres undefined), the melting point was 199 °C. C/C(=C\c1ccc(C(=O)OCc2ccc([N+](=O)[O-])cc2)cc1)c1ccc2c(c1)C(C)(C)CCC2(C)C gave a melting point of 183 to 184 °C. CC(=O)N1CCN(Cc2ccc(CCn3cnc4cc(-c5ccc(Cl)cc5)sc4c3=O)cc2)C(=O)C1 showed a melting point of 204 to 207 °C. Compound CCn1ncnc1COc1nn2c(-c3cc(F)ccc3F)nncc2c1C(C)(C)C has a melting point of 108 °C. For CC(=O)NC(CCc1ccc(C=O)cc1)(COC(C)=O)COC(C)=O, the melting point was 98 to 100 °C. Cc1cc(C)cc(NC(=O)c2ccc([N+](=O)[O-])cc2)c1 gave a melting point of 206 to 210 °C. In the case of CCOC(=O)c1c(C)nc2c(cnn2CC)c1Cl, the melting point is reported as 54 to 56 °C. COc1ccc(-n2c(=O)n(C)c(=O)n(CC(C)(C)C)c2=O)cc1 gave a melting point of 134 °C. In the case of Cn1nnnc1-c1cnc2ccccn2c1=O, the melting point is reported as 280 to 282 °C. For Brc1ccc2c(c1)C(c1ccccn1)=NCc1nncn1-2, the melting point was 252 to 255 °C. Work on CC1(O)CCC2(C)C(CCC3C2CCC2(C)C3CCC2[N+](=O)[O-])C1 (centres undefined) yielded a melting point of 211 to 213 °C. Work on Cc1ccn2nc(S(=O)(=O)N(C(=O)c3ccccc3)c3c(Cl)cccc3Cl)nc2n1 yielded a melting point of 187 to 189 °C. Work on CNC(=O)c1ccc(F)c2c1CC(N(CCc1c[nH]c3ccc(F)cc13)CC1CC1)CO2 (centres undefined) yielded a melting point of 138 °C. Cc1c(NCCCCNCC(O)COc2ccccc2)n(C)c(=O)n(C)c1=O (centres undefined) gave a melting point of 148 to 150 °C. O=C(O)CCCCCCCC(=O)c1c(-c2ccc(O)cc2)sc2cc(O)ccc12 showed a melting point of 154 to 158 °C. CCCc1nc(C(C)(C)O)c(C(=O)OCOC(=O)C(C)(C)C)n1Cc1ccc(-c2ccccc2C(=O)O)cc1 showed a melting point of 170 to 173 °C. Compound Cc1ccc(C(=O)O)c(Nc2ccc3cn[nH]c3c2)n1 has a melting point of 273 to 274 °C. Compound CN(C)c1ccc(C(=O)NC2CCN(C(c3ccccc3)c3ccccc3)CC2)c(N)c1 has a melting point of 118 °C. For O=S(=O)(Nc1cccc(CCOCc2nc(-c3ccc(F)cc3)sc2Br)c1)C(F)(F)F, the melting point was 84 to 85 °C. Compound NCCc1c2n(c3ccccc13)C(=O)CCC2 has a melting point of 110 to 111 °C. In the case of O=C(CNC(=O)c1ccc([N+](=O)[O-])cc1F)OCc1ccccc1, the melting point is reported as 104 to 106 °C. For CCN(CC)C(=O)C1CCC2C3CC=C4N(C)C(=O)CCC4(C)C3CCC12C (centres undefined), the melting point was 115 to 118 °C. In the case of COc1cccc(C=C(NC=O)c2ccncc2)c1OC, the melting point is reported as 161 to 162 °C. Compound CCCN(CCC)c1c(CC)nn2c(-c3ccc(OC)cc3C)cccc12 has a melting point of 76 to 79 °C. N#Cc1c(Cl)cc(OCc2ccncc2)cc1OC(C(=O)O)c1ccccc1Cl (racemic) showed a melting point of 165 to 167 °C. Cc1nn(-c2cc(Oc3ccc(C#N)cc3)c(Cl)cc2F)c(=O)n1C(F)F gave a melting point of 175 to 177 °C. CC(=O)NC1(C)CCN(Cc2ccccc2)C1 (centres undefined) gave a melting point of 105 to 106 °C. O=C1C(=CO)C(c2ccc(Cl)cc2Cl)c2c(Cl)cc(Cl)cc21 (centres undefined) gave a melting point of 189 to 191 °C. In the case of CCOC(=O)c1c(N2CCNCC2)c2ccc(C)nc2n(CC)c1=O, the melting point is reported as 137 to 139 °C. With O=C(Nc1cccc(-c2ccnc3c(C(=O)c4cccs4)cnn23)c1)OCc1cccnc1 the melting point was > 200 °C. Work on CC(C)(C)CNc1nnc(-c2ccccc2)c2ccccc12 yielded a melting point of 216 °C. Work on Oc1ccc(Nc2nc(Cl)cc3ccccc23)cc1 yielded a melting point of 170 °C. With CC(C)C(C)(C)[Si](C)(C)Oc1ccc2c(c1)c(I)c1n2CCC1 the melting point was 97 to 98 °C. For CSc1nc2ccnn2c(O)c1C#N, the melting point was > 250 °C. With Cn1cncc1C(c1ccc(Cl)cc1)c1ccc2c(c1)C(c1cccc(Cl)c1)SCC(=O)N2 (centres undefined) the melting point was 187 °C. COC(=O)CCC(=O)c1ccc2c(c1)C(C)NC(=O)N2 (centres undefined) showed a melting point of 142 to 150 °C. CCOC(=O)C1COc2c(C(=O)c3ccccc3)cccc21 (centres undefined) showed a melting point of 42 to 43 °C. With CCCCCCCCCCCCCCCCCCOc1cc(OC(=O)C(c2ccccc2)c2ccccc2)cc(C(=O)OCc2ccccc2)c1 the melting point was 47 to 49 °C. Work on N#Cc1cc(C(=O)O)ccc1F yielded a melting point of 177 to 178 °C. CCNC(=O)C(C)n1cc(C)c(-c2ccccc2)n1 (centres undefined) gave a melting point of 78 to 79 °C. O=C(c1cc2ccccc2c(-c2ccccc2Cl)n1)N1CCCCC1 showed a melting point of 161 °C. With CN1CCC(C2c3sccc3C=Cn3ncnc32)CC1 (centres undefined) the melting point was 137 °C. COC(=O)C(=NO)c1nc2ccc(C)cc2oc1=O gave a melting point of 189 to 190 °C. Compound O=C(O)c1cnc(C(F)(F)F)nc1C(F)(F)F has a melting point of 59 °C. For CC(C)(C)[Si](C)(C)N1C(=O)C(C(Cc2ccccc2)OC=O)C1SC(c1ccccc1)(c1ccccc1)c1ccccc1 (centres undefined), the melting point was 172 to 173 °C. COC(=O)c1ccc(CNC(C)=O)c([N+](=O)[O-])c1 showed a melting point of 100 to 102 °C. With COc1ccc(CCC(=O)Nc2c(C)c(C)c3c(c2C)C(c2ccc(C(C)C)cc2)C(C)(C)O3)cc1 (centres undefined) the melting point was 188 to 191 °C. Compound CC(C)(C)c1ccc(C(=O)c2ccc(C(C)(C)C)cc2)cc1 has a melting point of 132 to 136 °C. In the case of N=C(NC(=O)Nc1ccc([N+](=O)[O-])cc1)c1ccccc1, the melting point is reported as 188 to 191 °C. Cn1cc(-c2cc3cccnc3[nH]2)c2cc(OC3(CO)CCC3)ccc21 gave a melting point of 144 to 146 °C. For CCCCCCCC[C@H](N[C@@H](C)C(=O)N1C(=O)N(Cc2ccccc2)C[C@H]1C(=O)O)C(=O)OCC, the melting point was 86 to 88 °C. In the case of CC(C(=O)O)N1CCNC(C(=O)O)C1 (centres undefined), the melting point is reported as 173 to 174 °C. In the case of Cc1ccc(C(O)(c2ccc(C)cc2)C2CCNCC2)cc1, the melting point is reported as 150 to 153 °C. CS(=O)(=O)c1ccc(-c2oc3ccccc3c(=O)c2-c2ccc(F)c(Cl)c2)cc1 gave a melting point of 196 °C. COCCNc1ccc(C(=O)c2c(C)n(CCN3CCOCC3)c3ccccc23)cc1 showed a melting point of 121 to 123 °C. CC(C)C(Cl)C(=O)Nc1c(C(=O)CC(=O)Nc2nccs2)cccc1C(F)(F)F (centres undefined) showed a melting point of 186 °C. Compound c1ccc(CC2=NOC3(CCNCC3)C2)cc1 has a melting point of 51 to 54 °C. CC(C)n1cc(C(=O)C(F)(F)F)c2ccc([N+](=O)[O-])cc21 showed a melting point of 143 to 145 °C. In the case of O=C(O)c1cccc(C(=O)c2ccc(Cl)cc2)c1, the melting point is reported as 228 °C.

From a melting point compilation (Tetko et al.; mined from patent text by program, amines drawn as free bases though some values may be those of a salt)
